Measurements: ChEMBL document CHEMBL5500353, “Discovery of novel amide derivatives as potent quorum sensing inhibitors of Pseudomonas aeruginosa” (Eur J Med Chem, 2024)
Calls of active or inactive are those of the source. No cut-off for these calls is given here.

Assays:
[1] = Inhibition of quorum sensing system in Pseudomonas aeruginosa PAO1-lasB-gfp assessed as inhibition of lasB expression at 50 ug/ml incubated for 8 hrs under shaking condition by microplate reader based analysis relative to control; details: dose 50.0 µg/ml
[2] = Inhibition of quorum sensing system in Pseudomonas aeruginosa PAO1-rhlA-gfp assessed as inhibition of rhlA expression at 50 ug/ml incubated for 8 hrs under shaking condition by microplate reader based analysis relative to control; details: dose 50.0 µg/ml
[3] = Inhibition of quorum sensing system in Pseudomonas aeruginosa PAO1-pqsA-gfp assessed as inhibition of pqsA expression at 50 ug/ml incubated for 8 hrs under shaking condition by microplate reader based analysis relative to control; details: dose 50.0 µg/ml
Pseudomonas aeruginosa [4] = experiment: Downregulation of lasA mRNA expression in Pseudomonas aeruginosa PAO1 at 160 ug/ml incubated for 6 hrs by RT-qPCR analysis; format: functional; details: dose 160.0 µg/ml
Pseudomonas aeruginosa [5] = experiment: Anti-virulence activity in Pseudomonas aeruginosa PAO1 assessed as reduction in elastase production at 160 ug/ml by congo red dye based microplate reader analysis; format: functional, organism-based; details: dose 160.0 µg/ml
[6] = Cytotoxicity against human HepG2 cells assessed as inhibition of cell growth at 100 ug/ml measured after 48 hrs by CCK-8 method relative to control; format: toxicity, cell-based; details: at 100 µg/mL
Pseudomonas aeruginosa [7] = experiment: Antibiofilm activity against Pseudomonas aeruginosa PAO1 assessed as reduction in biofilm production at 160 ug/ml incubated for 72 hrs by crystal violet staining based analysis; format: functional, organism-based; details: dose 160.0 µg/ml
Pseudomonas aeruginosa [8] = experiment: Antibacterial activity against Pseudomonas aeruginosa infected in Galleria mellonella larvae infection model assessed as increase in survival rate at 160 ug/ml preincubated with measured after 72 hrs; format: functional, organism-based; details: dose 160.0 µg/ml
Pseudomonas aeruginosa [9] = experiment: Antibacterial activity against Pseudomonas aeruginosa PAO1 at 80 to 160 ug/ml incubated for 48 hrs by absorbance based analysis; format: functional, organism-based; details: dose 80-160 µg/ml
Pseudomonas aeruginosa [10] = experiment: Downregulation of rhll-mRNA expression in Pseudomonas aeruginosa PAO1 at 160 ug/ml incubated for 6 hrs by RT-qPCR analysis; format: functional; details: dose 160.0 µg/ml
Pseudomonas aeruginosa [11] = experiment: Downregulation of chiC mRNA expression in Pseudomonas aeruginosa PAO1 at 160 ug/ml incubated for 6 hrs by RT-qPCR analysis; format: functional; details: dose 160.0 µg/ml
Pseudomonas aeruginosa [12] = experiment: Downregulation of pqsR mRNA expression in Pseudomonas aeruginosa PAO1 at 160 ug/ml incubated for 6 hrs by RT-qPCR analysis; format: functional; details: dose 160.0 µg/ml
Pseudomonas aeruginosa [13] = experiment: Anti-motility activity against Pseudomonas aeruginosa PAO1 assessed as reduction in swarming at 160 ug/ml incubated for 12 hrs; format: functional, organism-based; details: dose 160.0 µg/ml
Pseudomonas aeruginosa [14] = experiment: Downregulation of rhlR mRNA expression in Pseudomonas aeruginosa PAO1 at 160 ug/ml incubated for 6 hrs by RT-qPCR analysis; format: functional; details: dose 160.0 µg/ml
Pseudomonas aeruginosa [15] = experiment: Downregulation of pqsA mRNA expression in Pseudomonas aeruginosa PAO1 at 160 ug/ml incubated for 6 hrs by RT-qPCR analysis; format: functional; details: dose 160.0 µg/ml
Pseudomonas aeruginosa [16] = experiment: Downregulation of lasB mRNA expression in Pseudomonas aeruginosa PAO1 at 160 ug/ml incubated for 6 hrs by RT-qPCR analysis; format: functional; details: dose 160.0 µg/ml
[17] = Cytotoxicity against human HepG2 cells assessed as inhibition of cell growth at 10 ug/ml measured after 48 hrs by CCK-8 method relative to control; format: toxicity, cell-based; details: at 10 µg/mL
Pseudomonas aeruginosa [18] = experiment: Downregulation of lasR mRNA expression in Pseudomonas aeruginosa PAO1 at 160 ug/ml incubated for 6 hrs by RT-qPCR analysis; format: functional; details: dose 160.0 µg/ml
Pseudomonas aeruginosa [19] = experiment: Anti-virulence activity in Pseudomonas aeruginosa PAO1 assessed as reduction in rhamnolipid production at 160 ug/ml incubated for 48 hrs by absorbance based analysis; format: functional, organism-based; details: dose 160.0 µg/ml
Pseudomonas aeruginosa [20] = experiment: Downregulation of lasl-mRNA expression in Pseudomonas aeruginosa PAO1 at 160 ug/ml incubated for 6 hrs by RT-qPCR analysis; format: functional; details: dose 160.0 µg/ml
Pseudomonas aeruginosa [21] = experiment: Downregulation of phzM mRNA expression in Pseudomonas aeruginosa PAO1 at 160 ug/ml incubated for 6 hrs by RT-qPCR analysis; format: functional; details: dose 160.0 µg/ml
Pseudomonas aeruginosa [22] = experiment: Anti-virulence activity in Pseudomonas aeruginosa PAO1 assessed as reduction in pyocyanin production at 160 ug/ml by absorbance based analysis; format: functional, organism-based; details: dose 160.0 µg/ml
Pseudomonas aeruginosa [23] = experiment: Anti-virulence activity in Pseudomonas aeruginosa PAO1 assessed as reduction in pyoverdine production at 160 ug/ml by absorbance based analysis; format: functional, organism-based; details: dose 160.0 µg/ml
[24] = target: T1, Transcriptional regulator MvfR (Pseudomonas aeruginosa PA14, UniProt A0A072ZLE6); experiment: Binding affinity to Pseudomonas aeruginosa PAO1 PqsR expressed in Escherichia coli BL21 assessed as dissociation constant by SPR analysis
T1 sequence (A0A072ZLE6 whole entry): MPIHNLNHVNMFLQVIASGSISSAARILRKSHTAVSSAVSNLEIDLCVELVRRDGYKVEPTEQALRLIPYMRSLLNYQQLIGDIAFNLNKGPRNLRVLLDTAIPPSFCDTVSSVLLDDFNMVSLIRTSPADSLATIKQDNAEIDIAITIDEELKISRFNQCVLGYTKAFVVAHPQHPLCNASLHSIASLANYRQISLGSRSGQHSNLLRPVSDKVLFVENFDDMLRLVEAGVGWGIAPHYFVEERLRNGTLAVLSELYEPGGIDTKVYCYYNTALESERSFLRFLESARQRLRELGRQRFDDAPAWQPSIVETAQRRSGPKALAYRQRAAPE

[25] = target: T2, Transcriptional activator protein LasR (Pseudomonas aeruginosa (strain ATCC 15692 / PAO1 / 1C / PRS 101 / LMG12228), UniProt P25084); experiment: Binding affinity to Pseudomonas aeruginosa PAO1 LasR assessed as dissociation constant by SPR analysis
T2 sequence (P25084 whole entry): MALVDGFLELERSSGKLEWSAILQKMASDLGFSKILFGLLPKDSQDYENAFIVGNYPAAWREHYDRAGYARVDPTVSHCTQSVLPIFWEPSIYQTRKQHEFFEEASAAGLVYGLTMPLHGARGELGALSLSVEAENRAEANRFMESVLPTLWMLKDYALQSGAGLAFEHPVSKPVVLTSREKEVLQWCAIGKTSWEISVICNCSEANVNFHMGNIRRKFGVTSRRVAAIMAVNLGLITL

Pseudomonas aeruginosa [26] = experiment: Antibacterial activity against Pseudomonas aeruginosa PAO1 at 80 ug/ml incubated for 48 hrs by absorbance based analysis; format: functional, organism-based; details: dose 80.0 µg/ml

CC(=O)NCC(C)(C)O
inhibition [1]: 1.11%
inhibition [2]: 13.8%

CCC(=O)NCC(C)C
inhibition [1]: 54.6%
inhibition [3]: 27.8%
inhibition [2]: 71%

CCCCC(=O)NCC(C)C
inhibition [1]: 77.2%
inhibition [3]: 30.2%
inhibition [2]: 65.8%

C/C=C/C(=O)NCC(C)C
inhibition [1]: 63.7%
inhibition [3]: 27.8%
inhibition [2]: 72.3%

C=C(C)CNC(=O)CCCC
inhibition [1]: 72.2%
inhibition [3]: 26%
inhibition [2]: 76.9%

C=CC(=O)NCC(=C)C
inhibition [1]: 54.7%
inhibition [3]: 2.45%
inhibition [2]: 63.9%

CCCC(=O)NCC(C)(C)O
inhibition [1]: 37.4%
inhibition [3]: -6.15%
inhibition [2]: 43.1%

CCCCCC(=O)NCC(C)C
inhibition [1]: 70%
inhibition [3]: 13.6%
inhibition [2]: 72.4%

CC/C=C/C(=O)NCC(C)(C)O
inhibition [1]: 53.1%
inhibition [3]: -8.67%
inhibition [2]: 58.1%

CC(=O)NCC(C)C
inhibition [1]: 13.8%
inhibition [3]: 11%
inhibition [2]: 18.9%

CCC/C=C/C(=O)NCC(C)(C)O
inhibition [1]: 34.5%
inhibition [2]: 50.1%

C/C=C/C(=O)NCC(C)(C)O
inhibition [1]: 29.9%
inhibition [2]: 41.9%

C=C(C)CNC(=O)CCCCCC
inhibition [1]: 61.6%
inhibition [3]: 42.5%
inhibition [2]: 68.4%

CCCCCC(=O)NCC(C)(C)O
inhibition [1]: 32.4%
inhibition [2]: 54.9%

C=C(C)CNC(=O)/C=C/C
inhibition [1]: 67.5%
inhibition [3]: 38%
inhibition [2]: 80%

CCCCCCC(=O)NCC(C)(C)O
inhibition [1]: 13.1%
inhibition [2]: 18.1%

C=CC(=O)NCC(C)C
inhibition [1]: 55.1%
inhibition [3]: 12.6%
inhibition [2]: 68.6%

C=C(C)CNC(=O)/C=C/CCC
Activity (Pseudomonas aeruginosa [4]): Active
Activity (Pseudomonas aeruginosa [5]): Active
inhibition [1]: 77.1%
inhibition [3]: 40%
inhibition at 48 h, 100 ug/ml [6]: 18.9%
Activity (Pseudomonas aeruginosa [7]): Active
Activity (Pseudomonas aeruginosa [8]): Active
Activity (Pseudomonas aeruginosa [9]): inactive
inhibition [2]: 85%
Activity (Pseudomonas aeruginosa [10]): Active
Activity (Pseudomonas aeruginosa [11]): Active
Activity (Pseudomonas aeruginosa [12]): inactive
Activity (Pseudomonas aeruginosa [13]): Active
Activity (Pseudomonas aeruginosa [14]): Active
Activity (Pseudomonas aeruginosa [15]): Active
Activity (Pseudomonas aeruginosa [16]): Active
inhibition at 48 h, 10 ug/ml [17]: 9.91%
Activity (Pseudomonas aeruginosa [18]): inactive
Activity (Pseudomonas aeruginosa [19]): Active
Activity (Pseudomonas aeruginosa [20]): Active
Activity (Pseudomonas aeruginosa [21]): Active
Activity (Pseudomonas aeruginosa [22]): Active
Activity (Pseudomonas aeruginosa [23]): Active

CCCCC(=O)NCC(C)(C)O
inhibition [1]: 40%
inhibition [3]: 1.47%
inhibition [2]: 55.8%

C=C(C)CNC(=O)CCC
inhibition [1]: 61.5%
inhibition [3]: 38.1%
inhibition [2]: 64.5%

CC/C=C/C(=O)NCC(C)C
inhibition [1]: 71.5%
inhibition [3]: 26.2%
inhibition [2]: 72.7%

CCCC(=O)NCC(C)C
inhibition [1]: 65.7%
inhibition [3]: 29.8%
inhibition [2]: 65.4%

C/C=C/C=C/C(=O)NCC(C)C
Kd [24]: 8.36 µM
Activity (Pseudomonas aeruginosa [4]): Active
Kd [25]: 1230 µM
Activity (Pseudomonas aeruginosa [5]): Active
inhibition [1]: 82.2%
inhibition [3]: 65.5%
inhibition at 48 h, 100 ug/ml [6]: 30.1%
Activity (Pseudomonas aeruginosa [7]): Active
Activity (Pseudomonas aeruginosa [8]): Active
Activity (Pseudomonas aeruginosa [9]): inactive
inhibition [2]: 84.1%
Activity (Pseudomonas aeruginosa [10]): Active
Activity (Pseudomonas aeruginosa [12]): inactive
Activity (Pseudomonas aeruginosa [13]): Active
Activity (Pseudomonas aeruginosa [14]): Active
Activity (Pseudomonas aeruginosa [15]): Active
Activity (Pseudomonas aeruginosa [16]): Active
inhibition at 48 h, 10 ug/ml [17]: -2.16%
Activity (Pseudomonas aeruginosa [18]): inactive
Activity (Pseudomonas aeruginosa [19]): Active
Activity (Pseudomonas aeruginosa [20]): Active
Activity (Pseudomonas aeruginosa [21]): Active
Activity (Pseudomonas aeruginosa [22]): Active
Activity (Pseudomonas aeruginosa [23]): Active

CCCCCCC(=O)NCC(C)C
inhibition [1]: 2.28%
inhibition [3]: 5.99%
inhibition [2]: 8.21%

C/C=C/C=C/C(=O)NCC(C)(C)O
inhibition [1]: 26.3%
inhibition [2]: 32.4%

CCC/C=C/C(=O)NCC(C)C
inhibition [1]: 64.1%
inhibition [3]: 26.5%
inhibition [2]: 80.5%
Activity (Pseudomonas aeruginosa [11]): Active

CCC(=O)NCC(C)(C)O
inhibition [1]: 7.26%
inhibition [2]: 28.3%

C=C(C)CNC(=O)CCCCC
inhibition [1]: 72.7%
inhibition [3]: 36.1%
inhibition [2]: 79.7%

C=CC(=O)NCC(C)(C)O
inhibition [1]: 6.82%
inhibition [3]: 0.28%
inhibition [2]: 29.7%

C=C(C)CNC(=O)/C=C/C=C/C
inhibition [1]: 38.9%
inhibition [3]: 11.8%
inhibition [2]: 56.8%

C=C(C)CNC(C)=O
inhibition [1]: 10.5%
inhibition [3]: 59.1%
inhibition [2]: 10.2%

C=CCSSCC=C [DIALLYLDISULFIDE]
inhibition [1]: 36.1%
inhibition [3]: 34.6%
inhibition at 48 h, 100 ug/ml [6]: 18.1%
inhibition [2]: 38%
Activity (Pseudomonas aeruginosa [26]): inactive
